What all share (format): ADME
In data set [1] the target is T1, Cytochrome P450 2C9 (Homo sapiens, UniProt P11712). Description: Drug metabolism in human liver microsomes assessed as 10 uM sulfaphenazole-mediated inhibition of CYP2C9-mediated (R)-1-(4-(4-fluoro-2-(hydroxymethyl)-1H-indol-5-yloxy)-5-methylpyrrolo[1,2-f][1,2,4]triazin-6-yloxy)propan-2-ol formation at 2 and 20 uM for 30 mins by LC/MS analysis. Conditions: 0.5 h. On the technique in general: Liver microsomes are a subcellular fraction often used to study metabolism.

Data set [2] deals with Cytochrome P450 2E1 (Homo sapiens, UniProt P05181). Put plainly: Drug metabolism in human liver microsomes assessed as 50 uM diethyldithiocarbamate-mediated inhibition of CYP2E1-mediated (R)-1-(4-(4-fluoro-2-(hydroxymethyl)-1H-indol-5-yloxy)-5-methylpyrrolo[1,2-f][1,2,4]triazin-6-yloxy)propan-2-ol formation at 2 and 20 uM for 30 mins by LC/MS analysis. Conditions: 0.5 h.
The target of data set [3] is Cytochrome P450 2D6 (Homo sapiens, UniProt P10635). Description: Drug metabolism assessed as human CYP2D6-mediated (R)-1-(4-(4-fluoro-2-(hydroxymethyl)-1H-indol-5-yloxy)-5-methylpyrrolo[1,2-f][1,2,4]triazin-6-yloxy)propan-2-ol formation at 2 and 20 uM for 20 mins by LC/MS analysis in presence of NADPH. Conditions: recombinant enzyme.
Data set [4] concerns the target T2, Cytochrome P450 2C8 (Homo sapiens, UniProt P10632).
T2 sequence (P10632 whole entry): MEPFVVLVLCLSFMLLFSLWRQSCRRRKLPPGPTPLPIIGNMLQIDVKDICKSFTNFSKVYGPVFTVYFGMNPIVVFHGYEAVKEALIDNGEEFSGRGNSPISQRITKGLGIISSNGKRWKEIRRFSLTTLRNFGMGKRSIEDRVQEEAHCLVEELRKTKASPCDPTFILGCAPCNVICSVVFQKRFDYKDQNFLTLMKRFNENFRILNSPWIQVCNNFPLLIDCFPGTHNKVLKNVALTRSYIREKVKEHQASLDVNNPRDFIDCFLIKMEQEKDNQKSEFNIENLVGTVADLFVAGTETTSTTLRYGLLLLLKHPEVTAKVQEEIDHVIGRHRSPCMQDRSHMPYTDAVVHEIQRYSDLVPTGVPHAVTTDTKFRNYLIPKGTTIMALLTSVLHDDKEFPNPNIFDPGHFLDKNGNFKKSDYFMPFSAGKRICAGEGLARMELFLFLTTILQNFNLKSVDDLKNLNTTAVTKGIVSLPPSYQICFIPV
Put plainly: Drug metabolism assessed as human CYP2C8-mediated (R)-1-(4-(4-fluoro-2-(hydroxymethyl)-1H-indol-5-yloxy)-5-methylpyrrolo[1,2-f][1,2,4]triazin-6-yloxy)propan-2-ol formation at 2 and 20 uM for 20 mins by LC/MS analysis in presence of NADPH. Conditions: recombinant enzyme.

Data set [5] is described as follows: Activity of CYP3A4/CYP1A2 in human liver microsomes assessed as enzyme-mediated (R)-1-(4-(4-fluoro-2-(hydroxymethyl)-1H-indol-5-yloxy)-5-methylpyrrolo[1,2-f][1,2,4]triazin-6-yloxy)propan-2-ol formation in presence of NADPH.
For data set [6], the system named is Liver microsome. Put plainly: Drug level in human liver microsomes assessed as compound formation treated with 2 uM [14C]brivanib alaninate for 60 mins by LC/MS analysis in presence of NADPH. The settings on record: 1 h.
Data set [7] relates to Liver microsome. Put plainly: Drug metabolism in human liver microsomes assessed as (R)-1-(4-(4-fluoro-2-(hydroxymethyl)-1H-indol-5-yloxy)-5-methylpyrrolo[1,2-f][1,2,4]triazin-6-yloxy)propan-2-ol formation at 2 and 20 uM for 30 mins by LC/MS analysis in presence of antibody for CYP1A2. The settings on record: 0.5 h.
The target of data set [8] is T3, Cytochrome P450 1A2 (Homo sapiens, UniProt P05177).
T3 sequence (P05177 whole entry): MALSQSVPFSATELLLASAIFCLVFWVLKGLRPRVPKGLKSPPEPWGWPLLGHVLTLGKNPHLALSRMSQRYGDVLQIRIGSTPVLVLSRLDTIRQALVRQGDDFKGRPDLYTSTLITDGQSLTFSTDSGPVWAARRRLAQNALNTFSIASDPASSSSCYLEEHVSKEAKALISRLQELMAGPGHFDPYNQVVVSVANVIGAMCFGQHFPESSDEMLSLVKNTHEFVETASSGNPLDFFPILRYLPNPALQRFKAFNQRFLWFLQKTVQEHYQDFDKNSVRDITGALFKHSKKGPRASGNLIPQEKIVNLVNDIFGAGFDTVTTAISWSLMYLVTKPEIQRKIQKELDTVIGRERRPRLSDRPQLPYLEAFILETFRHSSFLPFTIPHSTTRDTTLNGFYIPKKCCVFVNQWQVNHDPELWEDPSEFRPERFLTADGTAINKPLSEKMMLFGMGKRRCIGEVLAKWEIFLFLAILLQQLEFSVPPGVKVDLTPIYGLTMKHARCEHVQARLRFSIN
Put plainly: Activity of human CYP1A2 assessed as intrinsic clearance for enzyme-mediated (R)-1-(4-(4-fluoro-2-(hydroxymethyl)-1H-indol-5-yloxy)-5-methylpyrrolo[1,2-f][1,2,4]triazin-6-yloxy)propan-2-ol formation per picomole enzyme in presence of NADPH.

In data set [9] the target is Sulfotransferase 1E1 (Homo sapiens, UniProt P49888). Put plainly: Drug metabolism assessed as human SULT1E1-mediated (R)-1-(4-(4-fluoro-2-methyl-1H-indol-5-yloxy)-5-methylpyrrolo[1,2-f][1,2,4]triazin-6-yloxy)propane-2-sulfonic acid formation at 2 and 20 uM for 30 mins by LC/MS analysis in presence of PAPS. Conditions: 0.5 h.
Data set [10] has as its target T1, Cytochrome P450 2C9. Put plainly: Drug metabolism in human liver microsomes assessed as monoclonal antibody-mediated inhibition of CYP2C9-mediated (R)-1-(4-(4-fluoro-2-(hydroxymethyl)-1H-indol-5-yloxy)-5-methylpyrrolo[1,2-f][1,2,4]triazin-6-yloxy)propan-2-ol formation at 2 and 20 uM for 30 mins by LC/MS analysis. Conditions: 0.5 h.

T1 sequence (P11712 whole entry): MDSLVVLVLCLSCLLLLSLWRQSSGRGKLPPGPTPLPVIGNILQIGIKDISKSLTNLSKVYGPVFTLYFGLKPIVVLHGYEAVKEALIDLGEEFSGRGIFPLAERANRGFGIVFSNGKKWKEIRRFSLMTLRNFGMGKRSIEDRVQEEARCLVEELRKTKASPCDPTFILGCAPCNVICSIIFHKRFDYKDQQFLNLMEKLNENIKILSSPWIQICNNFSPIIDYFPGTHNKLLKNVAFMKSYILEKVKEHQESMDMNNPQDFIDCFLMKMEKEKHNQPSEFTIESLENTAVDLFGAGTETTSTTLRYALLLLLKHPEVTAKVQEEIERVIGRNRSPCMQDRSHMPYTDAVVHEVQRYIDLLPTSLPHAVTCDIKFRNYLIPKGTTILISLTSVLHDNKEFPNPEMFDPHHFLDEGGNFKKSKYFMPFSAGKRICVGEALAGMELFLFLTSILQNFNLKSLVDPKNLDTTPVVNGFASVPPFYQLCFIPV
Sequence of Cytochrome P450 2E1 (P05181 whole entry): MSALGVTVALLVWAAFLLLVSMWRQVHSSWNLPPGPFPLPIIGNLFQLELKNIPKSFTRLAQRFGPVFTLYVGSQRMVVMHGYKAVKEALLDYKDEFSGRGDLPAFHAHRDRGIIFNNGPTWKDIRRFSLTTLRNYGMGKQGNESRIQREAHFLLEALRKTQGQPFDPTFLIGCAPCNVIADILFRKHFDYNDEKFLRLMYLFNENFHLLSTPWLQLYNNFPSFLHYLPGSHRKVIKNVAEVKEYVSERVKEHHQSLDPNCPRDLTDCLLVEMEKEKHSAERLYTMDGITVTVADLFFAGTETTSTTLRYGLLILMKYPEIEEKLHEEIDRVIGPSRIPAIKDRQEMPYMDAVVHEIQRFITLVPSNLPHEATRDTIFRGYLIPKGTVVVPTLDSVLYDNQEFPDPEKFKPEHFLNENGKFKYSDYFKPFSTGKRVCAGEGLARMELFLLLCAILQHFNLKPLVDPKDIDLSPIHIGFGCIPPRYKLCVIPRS
Sequence of Cytochrome P450 2D6 (P10635 whole entry): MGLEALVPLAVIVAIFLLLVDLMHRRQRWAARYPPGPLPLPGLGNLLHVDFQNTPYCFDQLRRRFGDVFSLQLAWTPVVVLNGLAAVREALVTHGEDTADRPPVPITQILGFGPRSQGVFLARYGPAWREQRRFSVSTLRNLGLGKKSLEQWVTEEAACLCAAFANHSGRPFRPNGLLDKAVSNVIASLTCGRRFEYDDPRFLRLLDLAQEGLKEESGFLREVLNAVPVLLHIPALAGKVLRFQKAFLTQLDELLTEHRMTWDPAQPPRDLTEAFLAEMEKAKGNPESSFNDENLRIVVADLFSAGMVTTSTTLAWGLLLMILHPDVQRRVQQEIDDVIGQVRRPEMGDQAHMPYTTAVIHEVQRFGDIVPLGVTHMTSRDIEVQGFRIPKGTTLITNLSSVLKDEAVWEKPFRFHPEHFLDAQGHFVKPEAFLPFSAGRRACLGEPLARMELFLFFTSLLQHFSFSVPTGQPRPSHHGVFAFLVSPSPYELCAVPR
Sequence of Sulfotransferase 1E1 (P49888 whole entry): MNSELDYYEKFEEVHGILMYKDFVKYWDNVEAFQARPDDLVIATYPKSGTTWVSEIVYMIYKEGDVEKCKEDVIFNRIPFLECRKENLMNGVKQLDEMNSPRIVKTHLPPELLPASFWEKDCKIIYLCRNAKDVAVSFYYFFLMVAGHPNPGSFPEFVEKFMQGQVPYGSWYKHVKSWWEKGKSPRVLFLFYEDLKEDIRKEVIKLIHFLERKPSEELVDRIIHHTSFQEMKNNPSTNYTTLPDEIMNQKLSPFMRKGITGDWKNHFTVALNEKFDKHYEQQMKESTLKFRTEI

One may read the Km as the concentration of substrate that gives half-maximal velocity. For the compound `Cc1cc2c(F)c(Oc3ncnn4cc(OC[C@@H](C)O)c(C)c34)ccc2[nH]1` [BRIVANIB], the Drug metabolism entry is “metabolite_detected” in data set [1]; “metabolite_detected” in data set [2]; “metabolite_detected” in data set [3]; “metabolite_detected” in [4]; “metabolite_detected” in data set [6]; “metabolite_not_detected” in data set [7]. In addition, the Drug metabolism entry in [9] and in [10] was “metabolite_detected” in each case. Besides, the Km in [5] came to 29.1 µM. Further, the CL in [8] was determined as 0.031 µL/min.
